Literature values in patent US20040087563A1, “Hormone replacement therapy with cardiovascular protection using antialdosteronic progestins” (priority 2002, published 2004).

Legend:
[1] = system: renin-angiotensin-aldosterone system; conditions: healthy female volunteers
[2] = target: T1, mineralocorticoid receptor (Homo sapiens, UniProt P08235); conditions: compared with spironolactone
T1 sequence (P08235 1-984): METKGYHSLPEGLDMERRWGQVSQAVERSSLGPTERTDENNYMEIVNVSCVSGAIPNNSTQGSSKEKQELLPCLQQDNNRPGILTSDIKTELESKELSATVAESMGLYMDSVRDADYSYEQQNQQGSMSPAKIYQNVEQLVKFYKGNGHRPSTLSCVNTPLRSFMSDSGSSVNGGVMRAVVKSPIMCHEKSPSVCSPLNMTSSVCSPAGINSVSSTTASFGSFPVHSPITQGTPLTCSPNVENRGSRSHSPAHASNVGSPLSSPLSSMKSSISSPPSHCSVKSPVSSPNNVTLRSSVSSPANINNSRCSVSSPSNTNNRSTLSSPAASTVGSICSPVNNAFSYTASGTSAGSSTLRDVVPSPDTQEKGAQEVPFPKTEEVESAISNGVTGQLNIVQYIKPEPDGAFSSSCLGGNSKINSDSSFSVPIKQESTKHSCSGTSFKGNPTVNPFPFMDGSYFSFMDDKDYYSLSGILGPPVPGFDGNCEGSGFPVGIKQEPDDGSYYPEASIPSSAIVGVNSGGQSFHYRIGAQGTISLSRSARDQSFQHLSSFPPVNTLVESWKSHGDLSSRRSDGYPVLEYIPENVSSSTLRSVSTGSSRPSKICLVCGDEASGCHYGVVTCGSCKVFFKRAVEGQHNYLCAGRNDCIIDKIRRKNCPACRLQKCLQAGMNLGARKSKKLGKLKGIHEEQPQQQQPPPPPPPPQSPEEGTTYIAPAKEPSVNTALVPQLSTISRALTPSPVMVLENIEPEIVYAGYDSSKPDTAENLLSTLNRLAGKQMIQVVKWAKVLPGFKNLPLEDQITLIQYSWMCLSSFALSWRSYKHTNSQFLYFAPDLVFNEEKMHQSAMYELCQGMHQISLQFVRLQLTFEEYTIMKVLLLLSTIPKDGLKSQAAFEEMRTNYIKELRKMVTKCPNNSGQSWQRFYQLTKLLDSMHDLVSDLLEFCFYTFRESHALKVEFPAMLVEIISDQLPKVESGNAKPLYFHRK

[3] = patients with severe heart failure already receiving ACE inhibitor therapy

potency relative to spironolactone (antimineralocorticoid activity) [2]	SMILES	plasma aldosterone levels [1]	morbidity and mortality [3]
about 8 times	C[C@]12CCC(=O)C=C1[C@@H]1C[C@@H]1[C@H]1[C@@H]3[C@@H]4C[C@@H]4[C@@]4(CCC(=O)O4)[C@@]3(C)CC[C@@H]12 [Drospirenone, 6β,7β;15β;16β-dimethylene-3-oxo-17α-preg-4-ene-21, 17-carbolactone]	increased	
	CC(=O)S[C@@H]1CC2=CC(=O)CC[C@]2(C)[C@H]2CC[C@@]3(C)[C@@H](CC[C@@]34CCC(=O)O4)[C@H]12 [Spironolactone, 17-hydroxy-7-alpha-mercapto-3-oxo-17-alpha-pregn-4-ene-21-carboxylic acid gamma-lactone acetate]		decrease the morbidity and mortality
